# Results from ChEMBL document CHEMBL3879907, “8-azabicyclo[3.2.1]octane compounds as mu opioid receptor antagonists” (2014).
# How the values were obtained:
# [1] = target: Mu-type opioid receptor (Homo sapiens) (UniProt P35372); assay: Intrinsic activity at human mu opioid receptor expressed in CHOK1 cell membranes at 0.00001 to 20 uM after 30 mins by GTP-Eu nucleotide exchange assay relative to DAMGO; format: functional; details: CHO-K1
# [2] = target: Kappa-type opioid receptor (Cavia porcellus, UniProt P41144); assay: Displacement of [3H]-diprenorphine from guinea pig kappa opioid receptor expressed in CHOK1 cell membranes; details: cho-k1
# Kappa-type opioid receptor, sequence (P41144 whole entry): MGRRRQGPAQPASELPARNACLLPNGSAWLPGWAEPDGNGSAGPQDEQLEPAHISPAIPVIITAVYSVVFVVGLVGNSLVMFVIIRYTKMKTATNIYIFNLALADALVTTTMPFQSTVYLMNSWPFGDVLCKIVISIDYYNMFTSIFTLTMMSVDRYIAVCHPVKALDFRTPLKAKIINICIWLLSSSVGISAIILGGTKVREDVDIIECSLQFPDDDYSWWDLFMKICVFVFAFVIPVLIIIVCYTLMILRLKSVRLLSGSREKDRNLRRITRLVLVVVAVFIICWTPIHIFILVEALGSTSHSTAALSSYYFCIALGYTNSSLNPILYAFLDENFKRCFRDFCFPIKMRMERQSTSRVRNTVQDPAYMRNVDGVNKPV
# [3] = target: Delta-type opioid receptor (Homo sapiens, UniProt P41143); assay: Displacement of [3H]-diprenorphine from human delta opioid receptor expressed in cell membranes
# Delta-type opioid receptor, sequence (P41143 whole entry): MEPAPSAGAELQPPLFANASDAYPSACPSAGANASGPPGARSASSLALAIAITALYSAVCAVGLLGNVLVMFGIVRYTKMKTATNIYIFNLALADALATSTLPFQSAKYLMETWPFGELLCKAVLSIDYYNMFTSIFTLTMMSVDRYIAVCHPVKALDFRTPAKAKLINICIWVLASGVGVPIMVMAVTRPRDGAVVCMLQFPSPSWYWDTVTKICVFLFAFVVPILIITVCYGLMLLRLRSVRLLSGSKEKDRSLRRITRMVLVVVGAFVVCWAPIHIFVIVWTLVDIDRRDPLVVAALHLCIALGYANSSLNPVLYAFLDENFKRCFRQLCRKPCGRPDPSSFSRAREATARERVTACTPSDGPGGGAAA
# Mu-type opioid receptor (Homo sapiens), sequence (P35372 whole entry): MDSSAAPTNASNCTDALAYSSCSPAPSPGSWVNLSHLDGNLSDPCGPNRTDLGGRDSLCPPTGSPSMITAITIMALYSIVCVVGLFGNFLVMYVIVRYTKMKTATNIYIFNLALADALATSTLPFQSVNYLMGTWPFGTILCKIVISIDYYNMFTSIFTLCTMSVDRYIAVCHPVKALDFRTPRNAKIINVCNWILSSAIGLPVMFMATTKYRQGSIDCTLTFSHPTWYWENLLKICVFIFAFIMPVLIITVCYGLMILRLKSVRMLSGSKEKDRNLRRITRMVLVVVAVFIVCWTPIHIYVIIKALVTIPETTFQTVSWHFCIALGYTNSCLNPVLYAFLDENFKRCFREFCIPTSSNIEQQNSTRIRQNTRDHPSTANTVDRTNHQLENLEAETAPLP
Structure (SMILES),Intrinsic activity [1],pKi [2],pKi [3]
NC(=O)c1cccc([C@H]2C[C@H]3CC[C@@H](C2)N3CCN(CC2CCCCC2)C(=O)Cc2ccccc2)c1,< 40%,7 to 10.5,7 to 10.5
C[C@H](O)C(=O)N(CCN1[C@@H]2CC[C@H]1C[C@@H](c1cccc(C(N)=O)c1)C2)CC1CCC1.O=C(O)C(F)(F)F,< 40%,7 to 10.5,7 to 10.5
CS(=O)(=O)Nc1cccc([C@H]2C[C@H]3CC[C@@H](C2)N3CCN(CC2CCCCC2)C(=O)CO)c1,< 40%,7 to 10.5,7 to 10.5
CC(=O)N(CCN1[C@@H]2CC[C@H]1C[C@@H](c1cccc(O)c1)C2)Cc1c(F)cccc1F,< 40%,7 to 10.5,7 to 10.5
CC(C)CC(=O)N(CCN1[C@@H]2CC[C@H]1C[C@@H](c1cccc(O)c1)C2)Cc1c(F)cccc1F,< 40%,7 to 10.5,7 to 10.5
N#CCC(=O)N(CCN1[C@@H]2CC[C@H]1C[C@@H](c1cccc(C(N)=O)c1)C2)Cc1c(F)cccc1F.O=C(O)C(F)(F)F,< 40%,7 to 10.5,7 to 10.5
C[C@H](O)C(=O)N(CCN1[C@@H]2CC[C@H]1C[C@@H](c1cccc(C(N)=O)c1)C2)Cc1c(F)cccc1F.O=C(O)C(F)(F)F,< 40%,7 to 10.5,7 to 10.5
CC(C)(CO)C(=O)N(CCN1[C@@H]2CC[C@H]1C[C@@H](c1cccc(C(N)=O)c1)C2)Cc1ccccc1.O=C(O)C(F)(F)F,< 40%,7 to 10.5,7 to 10.5
NC(=O)c1cccc([C@H]2C[C@H]3CC[C@@H](C2)N3CCN(CCc2ccc(O)cc2)C(=O)CO)c1.O=C(O)C(F)(F)F,< 40%,7 to 10.5,7 to 10.5
CS(=O)(=O)CC(=O)N(CCN1[C@@H]2CC[C@H]1C[C@@H](c1cccc(C(N)=O)c1)C2)Cc1cccc(F)c1.O=C(O)C(F)(F)F,< 40%,7 to 10.5,7 to 10.5
O=C(C1CCCC1)N(CCN1[C@@H]2CC[C@H]1C[C@@H](c1cccc(O)c1)C2)CC1CCCCC1,< 40%,7 to 10.5,7 to 10.5
NC(=O)c1cccc([C@H]2C[C@H]3CC[C@@H](C2)N3CCN(CCCC2CCCCC2)C(=O)CO)c1,< 40%,7 to 10.5,7 to 10.5
NCC(=O)N(CCN1[C@@H]2CC[C@H]1C[C@@H](c1cccc(C(N)=O)c1)C2)CC1CCCCC1,< 40%,7 to 10.5,7 to 10.5
O=C(CO)N(CCN1[C@@H]2CC[C@H]1C[C@@H](c1cccc(O)c1)C2)Cc1ccc(F)cc1,< 40%,7 to 10.5,7 to 10.5
CS(=O)(=O)CC(=O)N(CCN1[C@@H]2CC[C@H]1C[C@@H](c1cccc(C(N)=O)c1)C2)CC1CCCC1.O=C(O)C(F)(F)F,< 40%,7 to 10.5,7 to 10.5
CC(C)(CO)C(=O)N(CCN1[C@@H]2CC[C@H]1C[C@@H](c1cccc(C(N)=O)c1)C2)Cc1c(F)cccc1F.O=C(O)C(F)(F)F,< 40%,7 to 10.5,7 to 10.5
CS(=O)(=O)N(CCN1[C@@H]2CC[C@H]1C[C@@H](c1cccc(C(N)=O)c1)C2)Cc1ccccc1.O=C(O)C(F)(F)F,< 40%,7 to 10.5,7 to 10.5
CC(C)(CO)C(=O)N(CCN1[C@@H]2CC[C@H]1C[C@@H](c1cccc(C(N)=O)c1)C2)CC1CCCCC1,< 40%,7 to 10.5,7 to 10.5
CS(=O)(=O)CC(=O)N(CCCN1[C@@H]2CC[C@H]1C[C@@H](c1cccc(C(N)=O)c1)C2)Cc1ccccc1.O=C(O)C(F)(F)F,< 40%,7 to 10.5,7 to 10.5
NC(=O)c1cccc([C@H]2C[C@H]3CC[C@@H](C2)N3CCCN(Cc2ccccc2)C(=O)[C@H](O)CO)c1.O=C(O)C(F)(F)F,< 40%,7 to 10.5,7 to 10.5
NC(=O)c1cccc([C@H]2C[C@H]3CC[C@@H](C2)N3CCN(Cc2ccc(F)cc2)C(=O)CO)c1.O=C(O)C(F)(F)F,< 40%,7 to 10.5,7 to 10.5
NC(=O)c1cccc([C@H]2C[C@H]3CC[C@@H](C2)N3CCN(CC2CCCC2)C(=O)CCO)c1.O=C(O)C(F)(F)F,< 40%,7 to 10.5,7 to 10.5
CC(C)C[C@H](O)C(=O)N(CCN1[C@@H]2CC[C@H]1C[C@@H](c1cccc(C(N)=O)c1)C2)CC1CCCCC1,< 40%,7 to 10.5,7 to 10.5
CS(=O)(=O)CC(=O)N(CCN1[C@@H]2CC[C@H]1C[C@@H](c1cccc(O)c1)C2)Cc1cccc(F)c1,< 40%,7 to 10.5,7 to 10.5
CCC(=O)N(CCN1[C@@H]2CC[C@H]1C[C@@H](c1cccc(O)c1)C2)CC1CCCCC1,< 40%,7 to 10.5,7 to 10.5
CCC(CC)C(=O)N(Cc1ccccc1)[C@H](C)CN1[C@@H]2CC[C@H]1C[C@@H](c1cccc(O)c1)C2,< 40%,7 to 10.5,7 to 10.5

Structure (SMILES),Intrinsic activity [1],pKi [2],pKi [3]
NC(=O)c1cccc([C@H]2C[C@H]3CC[C@@H](C2)N3CCN(CC2CCCCC2)C(=O)[C@H](O)CO)c1,< 40%,7 to 10.5,7 to 10.5
CN(C)CC(=O)N(CCN1[C@@H]2CC[C@H]1C[C@@H](c1cccc(C(N)=O)c1)C2)CC1CCCCC1,< 40%,7 to 10.5,7 to 10.5
CC(C)(CC(=O)O)CC(=O)N(CCN1[C@@H]2CC[C@H]1C[C@@H](c1cccc(O)c1)C2)CC1CCCCC1,< 40%,7 to 10.5,7 to 10.5
CS(=O)(=O)CC(=O)N(CCN1[C@@H]2CC[C@H]1C[C@@H](c1cccc(O)c1)C2)CC1CCCCC1,< 40%,7 to 10.5,7 to 10.5
NC(=O)c1cccc([C@H]2C[C@H]3CC[C@@H](C2)N3CCN(CC2CCCC2)C(=O)[C@H]2CC[C@H](O)CC2)c1.O=C(O)C(F)(F)F,< 40%,7 to 10.5,7 to 10.5
CS(=O)(=O)CC(=O)N(CCN1[C@@H]2CC[C@H]1C[C@@H](c1cccc(O)c1)C2)Cc1c(F)cccc1F,< 40%,7 to 10.5,7 to 10.5
O=C(O)CC(=O)N(CCN1[C@@H]2CC[C@H]1C[C@@H](c1cccc(O)c1)C2)Cc1cccc(F)c1,< 40%,7 to 10.5,7 to 10.5
NC(=O)c1cccc([C@H]2C[C@H]3CC[C@@H](C2)N3CCN(Cc2ccc(C(F)(F)F)cc2)C(=O)CO)c1.O=C(O)C(F)(F)F,< 40%,7 to 10.5,7 to 10.5
CC(CO)(CO)C(=O)N(CCN1[C@@H]2CC[C@H]1C[C@@H](c1cccc(C(N)=O)c1)C2)CC1CCC1.O=C(O)C(F)(F)F,< 40%,7 to 10.5,7 to 10.5
C[C@H](CN1[C@@H]2CC[C@H]1C[C@@H](c1cccc(O)c1)C2)N(Cc1ccccc1)C(=O)C1CCCC1,< 40%,7 to 10.5,7 to 10.5
O=C(C1CCCCC1)N(CCN1[C@@H]2CC[C@H]1C[C@@H](c1cccc(O)c1)C2)CC1CCCCC1,< 40%,7 to 10.5,7 to 10.5
NC(=O)c1cccc([C@H]2C[C@H]3CC[C@@H](C2)N3CCN(CC2CCCCC2)C(=O)Nc2ccc3c(c2)OCO3)c1,< 40%,7 to 10.5,7 to 10.5
NC(=O)c1cccc([C@H]2C[C@H]3CC[C@@H](C2)N3CCCN(Cc2ccccc2)C(=O)[C@@H](O)CO)c1.O=C(O)C(F)(F)F,< 40%,7 to 10.5,7 to 10.5
O=C(O)CCC(=O)N(CCN1[C@@H]2CC[C@H]1C[C@@H](c1cccc(O)c1)C2)Cc1ccccc1,< 40%,7 to 10.5,7 to 10.5
NC(=O)c1cccc([C@H]2C[C@H]3CC[C@@H](C2)N3CCN(Cc2c(F)cccc2F)C(=O)C2(O)CC2)c1.O=C(O)C(F)(F)F,< 40%,7 to 10.5,7 to 10.5
O=C(O)CC1(CC(=O)N(CCN2[C@@H]3CC[C@H]2C[C@@H](c2cccc(O)c2)C3)CC2CCCCC2)CCCC1,< 40%,7 to 10.5,7 to 10.5
CC(CO)(CO)C(=O)N(CCN1[C@@H]2CC[C@H]1C[C@@H](c1cccc(C(N)=O)c1)C2)CC1CCCCC1,< 40%,7 to 10.5,7 to 10.5
NC(=O)c1cccc([C@H]2C[C@H]3CC[C@@H](C2)N3CCN(CC2CCCC2)C(=O)[C@@H](O)CO)c1.O=C(O)C(F)(F)F,< 40%,7 to 10.5,7 to 10.5
NC(=O)c1cccc([C@H]2C[C@H]3CC[C@@H](C2)N3CCCN(Cc2ccccc2)C(=O)CO)c1,< 40%,7 to 10.5,7 to 10.5
O=C(O)CC(=O)N(CCN1[C@@H]2CC[C@H]1C[C@@H](c1cccc(O)c1)C2)Cc1c(F)cccc1F,< 40%,7 to 10.5,7 to 10.5
CC(CO)(CO)C(=O)N(CCN1[C@@H]2CC[C@H]1C[C@@H](c1cccc(C(N)=O)c1)C2)CC1CCCC1.O=C(O)C(F)(F)F,< 40%,7 to 10.5,7 to 10.5
NC(=O)c1cccc([C@H]2C[C@H]3CC[C@@H](C2)N3CCN(CCC2CCCCC2)C(=O)CO)c1,< 40%,7 to 10.5,7 to 10.5
"O=C(O)CCC(=O)N(CCN1[C@@H]2CC[C@H]1C[C@@H](c1cccc(O)c1)C2)CC1CCCCC1 (single isomer, unassigned)",< 40%,7 to 10.5,7 to 10.5
CS(=O)(=O)N(CCN1[C@@H]2CC[C@H]1C[C@@H](c1cccc(C(N)=O)c1)C2)Cc1c(F)cccc1F.O=C(O)C(F)(F)F,< 40%,7 to 10.5,7 to 10.5
NC(=O)c1cccc([C@H]2C[C@H]3CC[C@@H](C2)N3CCN(CC2CCCC2)C(=O)CO)c1.O=C(O)C(F)(F)F,< 40%,7 to 10.5,7 to 10.5
